Assay results published in PubChem BioAssay AID248 (DTP/NCI, 2004).
Several values for one entry are separate records, joined by “and”; a condition that tells them apart may be missing. Equal entries are not always repeated. Inconclusive results and toxic doses are left out. No stated cut-off is given here; in the data, active means T/C of 150% or more; inactive means T/C below 125%.

Tested on: L1210 leukemia ip in BDF1 mice, survival T/C
Test: NCI In Vivo Anticancer Drug Screen. Data for tumor model L1210 Leukemia (intraperitoneal) in B6D2F1 (BDF1) mice
Settings: endpoint: mean survival time, higher = longer survival
In short: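 Transplanted-tumor mice were given test agent; controls received vehicle only. Survival readings from the two groups were divided (treated over control).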

[1] = dose: 100.0 mg/kg/injection, schedule: Q04DX003 (ip), vehicle: saline
[2] = dose: 200.0 mg/kg/injection, schedule: Q01DX009 (ip), vehicle: saline
[3] = dose: 200.0 mg/kg/injection, schedule: Q04DX003 (ip), vehicle: saline
[4] = dose: 400.0 mg/kg/injection, schedule: Q04DX003 (ip), vehicle: saline
[5] = dose: 25.0 mg/kg/injection, schedule: Q01DX009 (ip), vehicle: saline
[6] = dose: 50.0 mg/kg/injection, schedule: Q01DX009 (ip), vehicle: saline
[7] = dose: 100.0 mg/kg/injection, schedule: Q01DX009 (ip), vehicle: saline
[8] = dose: 100.0 mg/kg/injection, schedule: Q04DX003 (ip), vehicle: Klucel (hydroxypropylcellulose) (HPC)
[9] = dose: 200.0 mg/kg/injection, schedule: Q04DX003 (ip), vehicle: Klucel (hydroxypropylcellulose) (HPC)
[10] = dose: 400.0 mg/kg/injection, schedule: Q04DX003 (ip), vehicle: Klucel (hydroxypropylcellulose) (HPC)
[11] = dose: 100.0 mg/kg/injection, schedule: Q01DX009 (ip), vehicle: Klucel (hydroxypropylcellulose) (HPC)
[12] = dose: 200.0 mg/kg/injection, schedule: Q01DX009 (ip), vehicle: Klucel (hydroxypropylcellulose) (HPC)
[13] = dose: 400.0 mg/kg/injection, schedule: Q01DX009 (ip), vehicle: Klucel (hydroxypropylcellulose) (HPC)
[14] = dose: 6.25 mg/kg/injection, schedule: Q01DX009 (ip), vehicle: Klucel (hydroxypropylcellulose) (HPC)
[15] = dose: 12.5 mg/kg/injection, schedule: Q01DX009 (ip), vehicle: Klucel (hydroxypropylcellulose) (HPC)
[16] = dose: 25.0 mg/kg/injection, schedule: Q01DX009 (ip), vehicle: Klucel (hydroxypropylcellulose) (HPC)
[17] = dose: 100.0 mg/kg/injection, schedule: Q01DX009 (ip), vehicle: saline with Tween-80
[18] = dose: 200.0 mg/kg/injection, schedule: Q01DX009 (ip), vehicle: saline with Tween-80
[19] = dose: 100.0 mg/kg/injection, schedule: Q01DX001 (ip), vehicle: saline
[20] = dose: 200.0 mg/kg/injection, schedule: Q01DX001 (ip), vehicle: saline
[21] = dose: 400.0 mg/kg/injection, schedule: Q01DX001 (ip), vehicle: saline

Measured: T/C

CCC[CH2][Sn]([CH2]CCC)([O]C)[O]C
inactive: dose: 4.0 mg/kg/injection, schedule: Q01DX009 (ip), vehicle: Klucel (hydroxypropylcellulose) (HPC) 98 % of control | dose: 4.0 mg/kg/injection, schedule: Q04DX003 (ip), vehicle: Klucel (hydroxypropylcellulose) (HPC) 96 % of control | dose: 8.0 mg/kg/injection, schedule: Q01DX009 (ip), vehicle: Klucel (hydroxypropylcellulose) (HPC) 98 % of control | dose: 8.0 mg/kg/injection, schedule: Q04DX003 (ip), vehicle: Klucel (hydroxypropylcellulose) (HPC) 101 % of control | dose: 16.0 mg/kg/injection, schedule: Q01DX009 (ip), vehicle: Klucel (hydroxypropylcellulose) (HPC) 104 % of control | dose: 16.0 mg/kg/injection, schedule: Q04DX003 (ip), vehicle: Klucel (hydroxypropylcellulose) (HPC) 99 % of control

Nc1nc(SCc2ccccn2)c2ncn(C3OC(CO)C(O)C3O)c2n1 (stereo not drawn)
inactive: dose: 6.25 mg/kg/injection, schedule: Q01DX Z (ip), vehicle: methylcellulose (MC) 106 % of control | dose: 12.5 mg/kg/injection, schedule: Q01DX Z (ip), vehicle: methylcellulose (MC) 104 % of control | dose: 25.0 mg/kg/injection, schedule: Q01DX Z (ip), vehicle: methylcellulose (MC) 112 % of control

COCCN1CCC(CN2c3ccccc3Sc3ccccc32)C1 (stereo not drawn)
inactive: [1] 111 % of control

COc1ccc(CN(CCO)S(C)(=O)=O)cc1
inactive: [1] 91 % of control | [2] 96 % of control | [3] 96 % of control | dose: 400.0 mg/kg/injection, schedule: Q01DX009 (ip), vehicle: saline 88 % of control | [4] 100 % of control

CC(C)NCCC(=O)c1ccc(OCc2ccccc2)cc1
inactive: [5] 106 % of control | [6] 110 % of control | [7] 106 % of control and 119 % of control

Cc1ccc(NC(=O)N2CCN(c3ccccc3)CC2)c([N+](=O)[O-])c1
inactive: [8] 96 % of control | [9] 102 % of control | [10] 91 % of control

CSc1cccc(/C=C\c2ccc([N+](=O)[O-])cc2)c1
inactive: [11] 101 % of control | [8] 94 % of control | [12] 100 % of control | [9] 94 % of control | [13] 88 % of control | [10] 96 % of control

O=[N+]([O-])c1ccc(C(Br)C(Br)c2ccccc2Br)cc1 (stereo not drawn)
inactive: [11] 98 % of control | [1] 96 % of control | [12] 102 % of control | [3] 98 % of control | [13] 98 % of control | [4] 96 % of control

[O-][n+]1ccccc1SSc1cccc[n+]1[O-]
inactive: [14] 99 % of control | [15] 96 % of control and 98 % of control | [16] 88 % of control

N#C/C(=C\c1ccc(Cl)cc1)c1ccccc1
inactive: dose: 100.0 mg/kg/injection, schedule: Q04DX003 (ip), vehicle: gum acacia 100 % of control | dose: 200.0 mg/kg/injection, schedule: Q04DX003 (ip), vehicle: gum acacia 102 % of control | dose: 400.0 mg/kg/injection, schedule: Q04DX003 (ip), vehicle: gum acacia 109 % of control

Nc1ccc(I)c(Cl)c1Cl
inactive: [17] 110 % of control | [18] 108 % of control | dose: 400.0 mg/kg/injection, schedule: Q01DX009 (ip), vehicle: saline with Tween-80 102 % of control

CC(=O)c1ccc2c(c1)N(CCCN1CCN(CCO)CC1)c1ccccc1S2
inactive: dose: 0.78 mg/kg/injection, schedule: Q01DX009 (ip), vehicle: saline 93 % of control and 120 % of control | dose: 1.5 mg/kg/injection, schedule: Q01DX009 (ip), vehicle: saline 106 % of control | dose: 1.56 mg/kg/injection, schedule: Q01DX009 (ip), vehicle: saline 105 % of control and 113 % of control | dose: 3.12 mg/kg/injection, schedule: Q01DX009 (ip), vehicle: Klucel (hydroxypropylcellulose) (HPC) 113 % of control | dose: 3.12 mg/kg/injection, schedule: Q01DX009 (ip), vehicle: saline 102 % of control and 104 % of control and 116 % of control | dose: 6.25 mg/kg/injection, schedule: Q01DX009 (ip), vehicle: saline 103 % of control and 104 % of control | dose: 6.25 mg/kg/injection, schedule: Q04DX003 (ip), vehicle: saline 98 % of control | [15] 96 % of control | dose: 12.5 mg/kg/injection, schedule: Q04DX003 (ip), vehicle: saline 115 % of control | [5] 98 % of control

CCNc1nc(Cl)nc(-c2cn(-c3ccccc3)c3ccccc23)n1
inactive: [19] 93 % of control | [17] 101 % of control | [1] 99 % of control | [20] 90 % of control | [18] 92 % of control | [3] 92 % of control | [21] 88 % of control | [4] 94 % of control

COC(=O)C1C2CC3c4[nH]c5cc(OC)ccc5c4CCN3CC2CC(OC(=O)c2cc(OC)c(OC)c(OC)c2)C1OC (stereo not drawn)
inactive: [14] 94 % of control | [15] 96 % of control | [16] 105 % of control | dose: 25.0 mg/kg/injection, schedule: Q04DX003 (ip), vehicle: saline 106 % of control | dose: 50.0 mg/kg/injection, schedule: Q01DX009 (ip), vehicle: Klucel (hydroxypropylcellulose) (HPC) 113 % of control | dose: 50.0 mg/kg/injection, schedule: Q04DX003 (ip), vehicle: saline 119 % of control | [1] 111 % of control

O=c1ssc(Cl)c1Cl
inactive: dose: 9.5 mg/kg/injection, schedule: Q01DX001 (ip), vehicle: other 94 % of control | dose: 10.0 mg/kg/injection, schedule: Q04DX003 (ip), vehicle: other 97 % of control | dose: 19.0 mg/kg/injection, schedule: Q01DX001 (ip), vehicle: other 103 % of control | dose: 20.0 mg/kg/injection, schedule: Q04DX003 (ip), vehicle: other 107 % of control | dose: 38.0 mg/kg/injection, schedule: Q01DX001 (ip), vehicle: other 87 % of control | dose: 40.0 mg/kg/injection, schedule: Q04DX003 (ip), vehicle: other 88 % of control

O=C(NCCc1ccccc1)Nc1cc([N+](=O)[O-])ccc1F
inactive: [8] 94 % of control | [9] 96 % of control | [10] 102 % of control

C=C(C)C1(Cc2ccccc2)C(=O)NC(=O)NC1=O
inactive: dose: 75.0 mg/kg/injection, schedule: Q01DX001 (ip), vehicle: saline 98 % of control

Nc1ncnc2c1ncn2C1OC(CF)C(O)C1O (stereo not drawn)
inactive: [6] 101 % of control | [7] 100 % of control | [2] 114 % of control

CCCCC(CCCC)(C(=O)OCCOCCCl)c1cccc2ccccc12
inactive: dose: 100.0 mg/kg/injection, schedule: Q04DX002 (ip), vehicle: saline with Tween-80 101 % of control | dose: 200.0 mg/kg/injection, schedule: Q04DX002 (ip), vehicle: saline with Tween-80 95 % of control | dose: 400.0 mg/kg/injection, schedule: Q04DX002 (ip), vehicle: saline with Tween-80 99 % of control

CNc1ccccc1[N+](=O)[O-]
inactive: [11] 100 % of control | dose: 100.0 mg/kg/injection, schedule: Q01DX009 (ip), vehicle: other 104 % of control | [8] 96 % of control | dose: 100.0 mg/kg/injection, schedule: Q04DX003 (ip), vehicle: other 107 % of control | [12] 98 % of control | dose: 200.0 mg/kg/injection, schedule: Q01DX009 (ip), vehicle: other 95 % of control | [9] 95 % of control | dose: 200.0 mg/kg/injection, schedule: Q04DX003 (ip), vehicle: other 97 % of control | [13] 104 % of control | dose: 400.0 mg/kg/injection, schedule: Q01DX009 (ip), vehicle: other 95 % of control | [10] 98 % of control | dose: 400.0 mg/kg/injection, schedule: Q04DX003 (ip), vehicle: other 113 % of control

CCOC(=O)c1c(Cl)nc2ccccc2c1Cl
inactive: [19] 92 % of control | [20] 97 % of control | [21] 94 % of control
